# Tests used:
# hMAO-A = target: T1, hMAO-A (Homo sapiens, UniProt P21397); assay: MAO-A inhibition assay (in vitro fluorometric Amplex Red method); assay type: biochemical
# T1 construct: purchased Sigma-Aldrich (Steinheim, Germany)
# T1 sequence (P21397 1-527): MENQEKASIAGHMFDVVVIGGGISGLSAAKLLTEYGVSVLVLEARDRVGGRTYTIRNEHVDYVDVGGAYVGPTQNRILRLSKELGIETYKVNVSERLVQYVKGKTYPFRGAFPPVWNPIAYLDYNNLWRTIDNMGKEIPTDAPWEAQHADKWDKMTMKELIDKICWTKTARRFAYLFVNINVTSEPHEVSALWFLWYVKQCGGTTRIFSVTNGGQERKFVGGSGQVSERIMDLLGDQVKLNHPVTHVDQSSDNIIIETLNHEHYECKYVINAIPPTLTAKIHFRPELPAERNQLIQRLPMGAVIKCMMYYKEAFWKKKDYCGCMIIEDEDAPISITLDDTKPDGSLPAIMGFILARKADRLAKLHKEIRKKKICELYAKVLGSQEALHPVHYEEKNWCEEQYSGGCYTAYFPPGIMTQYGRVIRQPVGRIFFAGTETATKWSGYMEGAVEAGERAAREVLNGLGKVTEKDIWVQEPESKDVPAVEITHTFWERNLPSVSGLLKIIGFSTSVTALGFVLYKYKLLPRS
# hMAO-B = target: T2, hMAO-B (Homo sapiens, UniProt P27338); assay: MAO-B inhibition assay (in vitro fluorometric Amplex Red method); assay type: biochemical
# T2 construct: purchased Sigma-Aldrich (Steinheim, Germany)
# T2 sequence (P27338 1-520): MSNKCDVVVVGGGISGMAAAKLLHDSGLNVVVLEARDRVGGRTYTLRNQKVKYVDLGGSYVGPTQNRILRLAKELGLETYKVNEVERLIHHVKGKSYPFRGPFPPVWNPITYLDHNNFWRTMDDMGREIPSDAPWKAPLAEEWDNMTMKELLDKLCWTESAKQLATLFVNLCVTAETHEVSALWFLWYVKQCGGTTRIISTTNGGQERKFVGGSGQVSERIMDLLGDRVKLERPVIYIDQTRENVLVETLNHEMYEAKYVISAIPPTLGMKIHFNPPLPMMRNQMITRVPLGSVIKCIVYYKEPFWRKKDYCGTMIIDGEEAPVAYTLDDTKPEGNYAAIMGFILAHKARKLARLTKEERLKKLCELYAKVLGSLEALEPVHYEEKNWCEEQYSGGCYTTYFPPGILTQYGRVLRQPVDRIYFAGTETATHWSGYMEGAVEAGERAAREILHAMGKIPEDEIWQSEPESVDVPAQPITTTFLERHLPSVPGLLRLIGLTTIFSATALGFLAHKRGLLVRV
inhibition at 1000 µM (hMAO-A; 10^−3 M) [%],inhibition at 100 µM (hMAO-A; 10^−4 M) [%],inhibition at 1000 µM (hMAO-B; 10^−3 M) [%],inhibition at 100 µM (hMAO-B; 10^−4 M) [%],melting point [°C],SMILES,further results
32.5 ± 0.844,25 ± 0.425,26.5 ± 0.478,19.4 ± 0.327,170.9 to 174.9,"COc1ccc(Oc2ccc(C=NNc3ccccc3)cc2)cc1 [Compound 2e, 1-(4-(4-Methoxyphenoxy)benzylidene)-2-phenylhydrazine]",–
30.5 ± 0.817,26.7 ± 0.748,33.3 ± 0.833,21.9 ± 0.416,178.1 to 184.3,"COc1ccc(Sc2ccc(C=NNc3ccccc3)cc2)cc1 [Compound 2f, 1-(4-((4-Methoxyphenyl)thio)benzylidene)-2-phenylhydrazine]",–
54.5 ± 1,20.4 ± 0.469,21.7 ± 0.52,17.1 ± 0.412,121.3 to 124.9,"Fc1ccc(Oc2ccc(C=NNc3ccccc3)cc2)cc1 [Compound 2g, 1-(4-(4-Fluorophenoxy)benzylidene)-2-phenylhydrazine]",–
28.6 ± 0.57,21 ± 0.548,30.2 ± 0.574,24.1 ± 0.355,132.3 to 133.9,"Fc1ccc(Sc2ccc(C=NNc3ccccc3)cc2)cc1 [Compound 2h, 1-(4-((4-Fluorophenyl)thio)benzylidene)-2-phenylhydrazine]",–
29.2 ± 0.672,21.5 ± 0.468,36.3 ± 0.774,19 ± 0.825,164.4 to 165.7,"Clc1ccc(Sc2ccc(C=NNc3ccccc3)cc2)cc1 [Compound 2k, 1-(4-((4-Chlorophenyl)thio)benzylidene)-2-phenylhydrazine]",–

# The remaining lines, values behind:
SMILES,inhibition at 1000 µM (hMAO-A; 10^−3 M) [%],inhibition at 100 µM (hMAO-A; 10^−4 M) [%],inhibition at 1000 µM (hMAO-B; 10^−3 M) [%],inhibition at 100 µM (hMAO-B; 10^−4 M) [%],melting point [°C],further results
"C(=NNc1ccccc1)c1ccc(N2CCN(c3ccccc3)CC2)cc1 [Compound 2c, 1-(4-(4-Phenylpiperazine-1-yl)benzylidene)-2-phenylhydrazine]",70.9 ± 1.06,43.2 ± 0.861,38.5 ± 0.732,34.7 ± 0.556,149.4 to 160.9,–
"COc1ccc(N2CCN(c3ccc(C=NNc4ccccc4)cc3)CC2)cc1 [Compound 2d, 1-(4-(4-(4-Methoxyphenyl)piperazine-1-yl)benzylidene)-2-phenylhydrazine]",68.6 ± 1.5,40.2 ± 0.97,39.2 ± 0.863,30.6 ± 0.613,141.2 to 150.4,–
"C(=NNc1ccccc1)c1ccc(-n2ccnc2)cc1 [Compound 2i, 1-(4-(1-Imidazolyl)benzylidene)-2-phenylhydrazine]",40.9 ± 0.9,18.3 ± 0.618,38.2 ± 1.09,30.7 ± 0.707,201.9 to 208.9,–
"C(=NNc1ccccc1)c1ccc(-n2cncn2)cc1 [Compound 2j, 1-(4-(1H-1,2,4-triazole-1-yl)benzylidene)-2-phenylhydrazine]",38.6 ± 0.743,33 ± 0.66,27.5 ± 0.633,22.1 ± 0.419,127.4 to 132.2,–
"C(=NNc1ccccc1)c1ccc(N2CCC(Cc3ccccc3)CC2)cc1 [Compound 2l, 1-(4-(Benzylpiperidine)benzylidene)-2-phenylhydrazine]",–,–,–,–,–,MAO-A Inhibition % (hMAO-A; 10^−3 M): 74.251 ± 1.614%; MAO-A Inhibition % (hMAO-A; 10^−4 M): 44.828 ± 0.917%; MAO-B Inhibition % (hMAO-B; 10^−3 M): 45.194 ± 0.692%; MAO-B Inhibition % (hMAO-B; 10^−4 M): 28.560 ± 0.629%
CN(C)CCN1CCN(c2ccc(C=NNc3ccccc3)cc2)CC1 [Compound 2m],–,–,–,–,–,MAO-A Inhibition % (hMAO-A; 10^−3 M): 68.276 ± 1.048%; MAO-A Inhibition % (hMAO-A; 10^−4 M): 39.471 ± 0.719%; MAO-B Inhibition % (hMAO-B; 10^−3 M): 41.072 ± 0.732%; MAO-B Inhibition % (hMAO-B; 10^−4 M): 27.607 ± 0.961%
CN(C)CCCN1CCN(c2ccc(C=NNc3ccccc3)cc2)CC1 [Compound 2n],–,–,–,–,–,MAO-A Inhibition % (hMAO-A; 10^−3 M): 64.435 ± 1.104%; MAO-A Inhibition % (hMAO-A; 10^−4 M): 36.154 ± 0.817%; MAO-B Inhibition % (hMAO-B; 10^−3 M): 40.629 ± 0.933%; MAO-B Inhibition % (hMAO-B; 10^−4 M): 29.068 ± 0.734%
"O=C(NCCN1CCOCC1)c1ccc(Cl)cc1 [Moclobemide, reference compound]",–,82.1 ± 2.69,–,–,–,inhibition at 10 µM (hMAO-A; 10^−5 M): 60.5 ± 2.56%; inhibition at 1 µM (hMAO-A; 10^−6 M): 36.2 ± 1.98%; inhibition at 0.1 µM (hMAO-A; 10^−7 M): 22.1 ± 1.34%; inhibition at 0.01 µM (hMAO-A; 10^−8 M): 18.2 ± 0.812%; inhibition at 0.001 µM (hMAO-A; 10^−9 M): 14.1 ± 0.725%

# — publication PMC6152084, “Synthesis of New Hydrazone Derivatives for MAO Enzymes Inhibitory Activity” (Molecules : A Journal of Synthetic Chemistry and Natural …, 2017)
